# Laboratory results as given in patent US20060276464A1, “Diarylsulfone sulfonamides and use thereof” (Wyeth, priority 2005, published 2006).
# “And” between values parts separate entries of the source, which are not always exact repeats. Equal entries are not always repeated. Where two headings read alike, the source gives them in different places.
# How the values were obtained:
# [1] = biological target: T1, SFRP-1 (Homo sapiens, UniProt Q8N474); test: Fluorescence polarization binding assay (competitive displacement of a probe compound from SFRP-1); details: fluorescence anisotropy, 45 nM SFRP-1, 20 nM probe;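 note: test compound competes with a fluorescent probe held by SFRP-1, seen as a drop in probe anisotropy after incubation in darkness, with anisotropy as function of rising compound dose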
# T1 sequence (Q8N474 32-314): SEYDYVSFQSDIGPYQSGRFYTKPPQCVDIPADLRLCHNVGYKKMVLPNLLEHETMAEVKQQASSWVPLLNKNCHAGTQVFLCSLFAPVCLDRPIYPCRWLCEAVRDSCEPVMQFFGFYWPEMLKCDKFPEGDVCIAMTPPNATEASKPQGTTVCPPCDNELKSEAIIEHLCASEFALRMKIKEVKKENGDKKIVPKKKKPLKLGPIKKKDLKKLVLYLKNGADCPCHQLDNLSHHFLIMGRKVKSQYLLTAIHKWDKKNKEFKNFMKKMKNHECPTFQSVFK
# [2] = biological target: T1, SFRP-1; test: Cell-based assay for in vitro measurement of SFRP-1/SARP2 antagonist activity (U2OS cells co-transfected with 16x TCF-tk-Luciferase reporter, Wnt and hSFRP-1); details: U2OS, single dose, luciferase reporter;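 note: U2OS cells co-transfected with a TCF-tk luciferase reporter, a Wnt vector, hSFRP-1 or empty vector and CMV-βgal, luciferase luminescence read in cell lysates alongside βgal activity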
# [3] = read-out: Fold Induction with SFRP-1, Conc 15 μM, fold induction over SFRP-1 control, cells with SFRP-1
# [4] = read-out: Fold Induction without SFRP-1, Conc 15 μM, cells without SFRP-1 (specificity control)
Structure (SMILES),IC50 [1],melting point,"fold induction at 15 µM [2, 3]","fold induction at 15 µM [2, 4]"
"CCCc1ccc(S(=O)(=O)c2ccc(F)cc2)cc1S(=O)(=O)NC1CCOCC1 [Example 560, 5-[(4-Fluorophenyl)sulfonyl]-2-propyl-N-(tetrahydro-2H-pyran-4-yl)benzenesulfonamide]",1700 nM and 2700 nM,131 to 133 °C,1.6,0.9
"CCCc1ccc(S(=O)(=O)c2ccc(F)cc2)cc1S(=O)(=O)NCCc1ccccn1 [Example 564, 5-[(4-Fluorophenyl)sulfonyl]-2-propyl-N-(2-pyridin-2-ylethyl)benzenesulfonamide]",1400 nM and 1600 nM,113 to 115 °C,3.3,1.3
"CCCc1ccc(S(=O)(=O)c2ccc(F)cc2)cc1S(=O)(=O)NC1CCN(C(=O)OC(C)(C)C)CC1 [Example 567, tert-Butyl 4-[({5-[(4-fluorophenyl)sulfonyl]-2-propylphenyl}sulfonyl)amino]piperidine-1-carboxylate]",1600 nM,151 to 153 °C,2.2,1.3
"O=S(=O)(NCCc1ccccc1)c1cc(S(=O)(=O)c2ccccc2)ccc1C(F)(F)F [Example 570, N-(2-Phenylethyl)-5-(phenylsulfonyl)-2-(trifluoromethyl)-benzenesulfonamide]",160 nM,151 to 153 °C,2.4,1.2
"O=S(=O)(NCCc1ccccn1)c1cc(S(=O)(=O)c2ccccc2)ccc1C(F)(F)F [Example 571, 5-(Phenylsulfonyl)-N-(2-pyridin-2-ylethyl)-2-(trifluoromethyl)benzenesulfonamide]",130 nM and 300 nM,149 to 151 °C,3.1,1.2
"O=S(=O)(NC1CCOCC1)c1cc(S(=O)(=O)c2ccccc2)ccc1C(F)(F)F [Example 608, 5-(phenylsulfonyl)-N-(tetrahydro-2H-pyran-4-yl)-2-(trifluoromethyl)benzenesulfonamide]",300 nM and 500 nM,155 to 158 °C,3.8,1.1
"CC(C)c1cc(C(C)C)c(S(=O)(=O)c2ccccc2)cc1S(=O)(=O)NCCc1ccccc1 [Example 609, 2,4-Diisopropyl-N-(2-phenylethyl)-5-(phenylsulfonyl)benzenesulfonamide]",2100 nM,156 to 158 °C,1.4,1.1
"CC(C)c1cc(C(C)C)c(S(=O)(=O)c2ccccc2)cc1S(=O)(=O)NC1CCOCC1 [Example 610, 2,4-Diisopropyl-5-(phenylsulfonyl)-N-(tetrahydro-2H-pyran-4-yl)benzenesulfonamide]",900 nM,159 to 160 °C,2.5,1.1

# Now from value to molecule:
IC50 [1],melting point,"fold induction at 15 µM [2, 3]","fold induction at 15 µM [2, 4]",Structure (SMILES)
1300 nM,148 to 150 °C,2.6,1.1,"CC(C)c1cc(C(C)C)c(S(=O)(=O)c2ccccc2)cc1S(=O)(=O)NCC1CCOCC1 [Example 611, 2,4-Diisopropyl-5-(phenylsulfonyl)-N-(tetrahydro-2H-pyran-4-ylmethyl)benzenesulfonamide]"
1600 nM,90 to 92 °C,2,1.1,"CC(C)c1cc(C(C)C)c(S(=O)(=O)c2ccccc2)cc1S(=O)(=O)NCCC1CCOCC1 [Example 612, 2,4-Diisopropyl-5-(phenylsulfonyl)-N-[2-(tetrahydro-2H-pyran-4-yl)ethyl]benzenesulfonamide]"
2500 nM and 3000 nM,179 to 181 °C,1.3,1,"CC(C)c1cc(C(C)C)c(S(=O)(=O)c2ccccc2)cc1S(=O)(=O)NC1CCCC1 [Example 613, N-Cyclopentyl-2,4-diisopropyl-5-(phenylsulfonyl)benzenesulfonamide]"
1300 nM,189 to 191 °C,1.8,1,"CC(C)c1cc(C(C)C)c(S(=O)(=O)c2ccccc2)cc1S(=O)(=O)NCCc1ccccn1 [Example 614, 2,4-Diisopropyl-5-(phenylsulfonyl)-N-(2-pyridin-2-ylethyl)benzenesulfonamide]"
1200 nM,203 to 205 °C,1.7,1,"CC(C)c1cc(C(C)C)c(S(=O)(=O)c2ccccc2)cc1S(=O)(=O)NCCCn1ccnc1 [Example 615, N-[3-(1H-Imidazol-1-yl)propyl]-2,4-diisopropyl-5-(phenylsulfonyl)benzenesulfonamide]"
800 nM,163 to 165 °C,2.7,1,"CC(C)c1cc(C(C)C)c(S(=O)(=O)c2ccccc2)cc1S(=O)(=O)NCCc1cccnc1 [Example 616, 2,4-Diisopropyl-5-(phenylsulfonyl)-N-(2-pyridin-3-ylethyl)benzenesulfonamide]"
1000 nM,178 to 180 °C,2,1.2,"CC(C)c1cc(C(C)C)c(S(=O)(=O)c2ccccc2)cc1S(=O)(=O)NCCc1ccncc1 [Example 617, 2,4-Diisopropyl-5-(phenylsulfonyl)-N-(2-pyridin-4-ylethyl)benzenesulfonamide]"
1000 nM,183 to 186 °C,2.7,1,"CC(C)c1cc(C(C)C)c(S(=O)(=O)c2ccc(F)cc2)cc1S(=O)(=O)NC1CCOCC1 [Example 620, 5-[(4-Fluorophenyl)sulfonyl]-2,4-diisopropyl-N-(tetrahydro-2H-pyran-4-yl)benzenesulfonamide]"
3000 nM,200 to 202 °C,2.1,1,"CC(C)c1cc(C(C)C)c(S(=O)(=O)c2ccc(F)cc2)cc1S(=O)(=O)NCC1CCOCC1 [Example 629, 5-[(4-Fluorophenyl)sulfonyl]-2,4-diisopropyl-N-(tetrahydro-2H-pyran-4-ylmethyl)benzenesulfonamide]"
4000 nM,141 to 143 °C,2.2,1,"CC(C)c1cc(C(C)C)c(S(=O)(=O)c2ccc(F)cc2)cc1S(=O)(=O)NCCC1CCOCC1 [Example 630, 5-[(4-Fluorophenyl)sulfonyl]-2,4-diisopropyl-N-[2-(tetrahydro-2H-pyran-4-yl)ethyl]benzenesulfonamide]"
4000 nM,159 to 161 °C,2.4,1,"CC(C)c1cc(C(C)C)c(S(=O)(=O)c2ccc(F)cc2)cc1S(=O)(=O)NCCc1ccccn1 [Example 631, 5-[(4-Fluorophenyl)sulfonyl]-2,4-diisopropyl-N-(2-pyridin-2-ylethyl)benzenesulfonamide]"
2600 nM,148 to 150 °C,3,1,"CC(C)c1cc(C(C)C)c(S(=O)(=O)c2ccc(F)cc2)cc1S(=O)(=O)NCCc1cccnc1 [Example 632, 5-[(4-Fluorophenyl)sulfonyl]-2,4-diisopropyl-N-(2-pyridin-3-ylethyl)benzenesulfonamide]"
